Earlier results in US20240058412A1, “MODIFIED RELEASE FORMULATION COMPRISING WITHANOLIDES” (INVENTIA HEALTHCARE LIMITED, priority 2021, published 2024).

Conditions: mice plasma, oral Withania somnifera extract 1000 mg/kg

| SMILES | half-life |
| --- | --- |
| CC1=C(CO)C(=O)O[C@@H]([C@@H](C)[C@H]2CC[C@H]3[C@@H]4C[C@H]5O[C@]56[C@@H](O)C=CC(=O)[C@]6(C)[C@H]4CC[C@]23C)C1 [withaferin-A] | 59.92 ± 15.90 min |
| CC1=C(C)C(=O)O[C@@H]([C@](C)(O)[C@H]2CC[C@H]3[C@@H]4[C@@H]5O[C@@H]5[C@@]5(O)CC=CC(=O)[C@]5(C)[C@H]4CC[C@]23C)C1 [withanolide-A] | 45.22 ± 9.95 min |
